Molecules are shown by their SMILES.

The target of this assay is T1, human IL-17AA (Homo sapiens, UniProt Q16552).
T1 construct: host or cells: HEK (human embryonic kidney) cells
T1 sequence (Q16552 24-155) 1: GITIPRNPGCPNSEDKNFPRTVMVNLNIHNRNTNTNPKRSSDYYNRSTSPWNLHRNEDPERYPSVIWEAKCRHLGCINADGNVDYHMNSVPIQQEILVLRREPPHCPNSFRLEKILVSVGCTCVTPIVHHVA
T1 sequence (Q16552 24-155) 2: T1 sequence (Q16552 24-155) 1
Kind of assay: IL-8 release assay in human epithelial keratinocytes adult (HEKa). The assay is classed as cell-based. The conditions noted are these: 3 ng/ml human IL-17AA + 10 ng/ml human TNFalpha, 68-72 h, IL-8 by HTRF, read-out: Rel EC50 L-8 release assay. In short, it runs like this:
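Adult human keratinocytes in Epilife with HKGS minus hydrocortisone, treated with compound then stimulated with final 3 ng/ml HEK-derived human IL-17AA plus 10 ng/ml TNF-alpha for 68–72 h at 37 °C; TNF-alpha alone defines 100% inhibition. Secreted IL-8 by HTRF; relative IC50 and Emax from four-parameter fits.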
As to `Cc1nocc1C(=O)N[C@@H](Cc1cc(-c2ccnc(C(O)C(C)(C)C)c2)ccc1Cl)C(=O)Nc1ccc(-c2nncn2C)cc1` (stereo partly drawn) [Example 81, N-[(1S)-1-[[2-chloro-5-[2-(1-hydroxy-2,2-dimethyl-propyl)-4-pyridyl]phenyl]methyl]-2-[4-(4-methyl-1,2,4-triazol-3-yl)anilino]-2-oxo-ethyl]-3-methyl-isoxazole-4-carboxamide], the EC50 (in general, the concentration needed to bring the measured effect to its halfway point) lay within 0.1 to 1 µM.
To `Cc1nocc1C(=O)N[C@@H](Cc1cc(-c2ccnc(C(O)C(C)C)c2)ccc1Cl)C(=O)Nc1ccc(-c2nncn2C)cc1` (stereo partly drawn) [Example 82, N-[(1S)-1-[[2-chloro-5-[2-(1-hydroxy-2-methyl-propyl)-4-pyridyl]phenyl]methyl]-2-[4-(4-methyl-1,2,4-triazol-3-yl)anilino]-2-oxo-ethyl]-3-methyl-isoxazole-4-carboxamide] belongs 0.1 to 1 µM.
In the case of `CC(C)n1cc(-c2ccc(Cl)c(CC(NC(=O)c3ccnn3C)C(=O)Nc3ccc(-c4cnn[nH]4)cc3)c2)ccc1=O` (stereo not drawn) [Example 83, N-[1-[[2-chloro-5-(1-isopropyl-6-oxo-3-pyridyl)phenyl]methyl]-2-oxo-2-[4-(1H-triazol-5-yl)anilino]ethyl]-2-methyl-pyrazole-3-carboxamide], the EC50 was in the range of 0.1 to 1 µM.
To `Cc1nocc1C(=O)N[C@@H](Cc1cc(-c2ccnc(C(=O)C(C)(C)C)c2)ccc1Cl)C(=O)Nc1ccc(-c2nncn2C)cc1` [Example 84, N-[(1S)-1-[[2-chloro-5-[2-(2,2-dimethylpropanoyl)-4-pyridyl]phenyl]methyl]-2-[4-(4-methyl-1,2,4-triazol-3-yl)anilino]-2-oxo-ethyl]-3-methyl-isoxazole-4-carboxamide] belongs 0.1 to 1 µM; to `Cc1nocc1C(=O)N[C@@H](Cc1cc(-c2ccnc(C(=O)C3CC3)c2)ccc1Cl)C(=O)Nc1ccc(-c2nncn2C)cc1` [Example 85, N-[(1S)-1-[[2-chloro-5-[2-(cyclopropanecarbonyl)-4-pyridyl]phenyl]methyl]-2-[4-(4-methyl-1,2,4-triazol-3-yl)anilino]-2-oxo-ethyl]-3-methyl-isoxazole-4-carboxamide], greater than 1 µM; to `CC(C)n1cc(-c2ccc(Cl)c(C[C@H](NC(=O)OC(C)(C)C)C(=O)Nc3ccc(-c4nncn4C)cc3)c2)ccc1=O` [Example 86, tert-butyl N-[(1S)-1-[[2-chloro-5-(1-isopropyl-6-oxo-3-pyridyl)phenyl]methyl]-2-[4-(4-methyl-1,2,4-triazol-3-yl)anilino]-2-oxo-ethyl]carbamate], greater than 1 µM.
Then `CC(C)n1cc(-c2ccc(Cl)c(C[C@H](NC(=O)OCc3ccccc3)C(=O)Nc3ccc(-c4nncn4C)cc3)c2)ccc1=O` [Example 87, benzyl N-[(1S)-1-[[2-chloro-5-(1-isopropyl-6-oxo-3-pyridyl)phenyl]methyl]-2-[4-(4-methyl-1,2,4-triazol-3-yl)anilino]-2-oxo-ethyl]carbamate], with 0.1 to 1 µM; and `Cc1ncnn1-c1ccc(NC(=O)C(Cc2cc(-c3ccc(=O)n(C(C)C)c3)ccc2Cl)NC(=O)c2ccnn2C)cc1` (stereo not drawn) [Example 88, N-[1-[[2-chloro-5-(1-isopropyl-6-oxo-3-pyridyl)phenyl]methyl]-2-[4-(5-methyl-1,2,4-triazol-1-yl)anilino]-2-oxo-ethyl]-2-methyl-pyrazole-3-carboxamide], with greater than 1 µM; and `Cc1[nH]ncc1-c1ccc(NC(=O)C(Cc2cc(-c3ccc(=O)n(C(C)C)c3)ccc2Cl)NC(=O)c2ccnn2C)cc1` (stereo not drawn) [Example 89, N-[1-[[2-chloro-5-(1-isopropyl-6-oxo-3-pyridyl)phenyl]methyl]-2-[4-(5-methyl-1H-pyrazol-4-yl)anilino]-2-oxo-ethyl]-2-methyl-pyrazole-3-carboxamide], with 0.1 to 1 µM.
`Cc1[nH]ncc1-c1ccc(NC(=O)C(Cc2cc(-c3ccc(=O)n(C(C)C)c3)ccc2Cl)NC(=O)OC(C)(C)C)cc1` (stereo not drawn) [Example 90, tert-butyl N-[1-[[2-chloro-5-(1-isopropyl-6-oxo-3-pyridyl)phenyl]methyl]-2-[4-(5-methyl-1H-pyrazol-4-yl)anilino]-2-oxo-ethyl]carbamate]: the EC50 fell in the range of 0.1 to 1 µM.
Take `CC(C)n1nccc1C(=O)N[C@@H](Cc1cc(-c2ccc(=O)n(C(C)C)c2)ccc1Cl)C(=O)Nc1ccc(-c2nncn2C)cc1` [Example 91, N-[(1S)-1-[[2-chloro-5-(1-isopropyl-6-oxo-3-pyridyl)phenyl]methyl]-2-[4-(4-methyl-1,2,4-triazol-3-yl)anilino]-2-oxo-ethyl]-2-isopropyl-pyrazole-3-carboxamide]: the EC50 fell in the range of 0.1 to 1 µM.
To `CC(C)n1cc(-c2ccc(Cl)c(C[C@H](NC(=O)C3(F)CC3)C(=O)Nc3ccc(-c4nncn4C)cc3)c2)ccc1=O` [Example 92, N-[(1S)-1-[[2-chloro-5-(1-isopropyl-6-oxo-3-pyridyl)phenyl]methyl]-2-[4-(4-methyl-1,2,4-triazol-3-yl)anilino]-2-oxo-ethyl]-1-fluoro-cyclopropanecarboxamide] belongs greater than 1 µM.
Then `Cc1noc(C)c1-c1ccc(NC(=O)C(Cc2cc(-c3ccc(=O)n(C(C)C)c3)ccc2Cl)NC(=O)c2ccnn2C)cc1` (stereo not drawn) [Example 93, N-[1-[[2-chloro-5-(1-isopropyl-6-oxo-3-pyridyl)phenyl]methyl]-2-[4-(3,5-dimethylisoxazol-4-yl)anilino]-2-oxo-ethyl]-2-methyl-pyrazole-3-carboxamide], with 0.1 to 1 µM; and `Cc1n[nH]c(C)c1-c1ccc(NC(=O)C(Cc2cc(-c3ccc(=O)n(C(C)C)c3)ccc2Cl)NC(=O)c2ccnn2C)cc1` (stereo not drawn) [Example 94, N-[1-[[2-chloro-5-(1-isopropyl-6-oxo-3-pyridyl)phenyl]methyl]-2-[4-(3,5-dimethyl-1H-pyrazol-4-yl)anilino]-2-oxo-ethyl]-2-methyl-pyrazole-3-carboxamide], with less than 0.1 µM.
To `CC(C)n1cc(-c2ccc(Cl)c(CC(NC(=O)c3conc3C(F)(F)F)C(=O)Nc3ccc(-c4nncn4C)cc3)c2)ccc1=O` (stereo not drawn) [Example 95, N-[1-[[2-chloro-5-(1-isopropyl-6-oxo-3-pyridyl)phenyl]methyl]-2-[4-(4-methyl-1,2,4-triazol-3-yl)anilino]-2-oxo-ethyl]-3-(trifluoromethyl)isoxazole-4-carboxamide] belongs greater than 1 µM; to `CC(C)n1cc(-c2ccc(Cl)c(CC(NC(=O)c3conc3C(C)(C)C)C(=O)Nc3ccc(-c4nncn4C)cc3)c2)ccc1=O` (stereo not drawn) [Example 96, 3-tert-butyl-N-[1-[[2-chloro-5-(1-isopropyl-6-oxo-3-pyridyl)phenyl]methyl]-2-[4-(4-methyl-1,2,4-triazol-3-yl)anilino]-2-oxo-ethyl]isoxazole-4-carboxamide], 0.1 to 1 µM; to `CC(C)n1cc(-c2ccc(Cl)c(CC(NC(=O)C(F)(F)c3ccccc3)C(=O)Nc3ccc(-c4nncn4C)cc3)c2)ccc1=O` (stereo not drawn) [Example 97, 3-[2-chloro-5-(1-isopropyl-6-oxo-3-pyridyl)phenyl]-2-[(2,2-difluoro-2-phenyl-acetyl)amino]-N-[4-(4-methyl-1,2,4-triazol-3-yl)phenyl]propanamide], greater than 1 µM.
Turning to `Cc1[nH]nnc1-c1ccc(NC(=O)C(Cc2cc(-c3ccc(=O)n(C(C)C)c3)ccc2Cl)NC(=O)c2ccnn2C)cc1` (stereo not drawn) [Example 98, N-[1-[[2-chloro-5-(1-isopropyl-6-oxo-3-pyridyl)phenyl]methyl]-2-[4-(5-methyl-1H-triazol-4-yl)anilino]-2-oxo-ethyl]-2-methyl-pyrazole-3-carboxamide], the EC50 lay in the range of 0.1 to 1 µM.

(Values after patent US20220162191A1, “SMALL MOLECULE MODULATORS OF IL-17” (LEO PHARMA A/S, priority 2019, published 2022).)
